Experimental data taken from US9611253B2, “Solid forms comprising optically active pyrazolylaminoquinazoline, compositions thereof, and uses therewith” (AMBIT BIOSCIENCES CORPORATION, priority 2012, dated 2017).

Key:
[1] = Solubility/crystallization screen of Compound 6 salts (20 mg salt, solvent, heating, then standing)
Description: The resulting solids were analyzed by DSC and portions of each salt were tested for solubility and crystallization from the following solvents:
20 mg of salt was charged to a 1-dram screw-top vial. Solvent (enough to cover the solids) was added, the vial was capped and heated (heat gun) to aid dissolution. If no, or partial dissolution was observed, the vial was allowed to cool, additional solvent was added and the process repeated. The solubility was characterized as follows: Soluble (sol): the solids dissolved upon heating, Sparingly soluble (sp): the solids dissolved upon heating after two or more additions of solvent or Insoluble (I): complete dissolution could not be achieved. […] The vials containing solids were filtered and analyzed by DSC.

[2] = Stability of esylate salt in water and aqueous ethanol (dissociation to free base); assay type: physicochemical; conditions: in water and aqueous ethanol solutions
Excerpt: Spontaneous precipitation from the aqueous solution afforded Compound 6 as free base; a new crystalline XRPD pattern was observed (See FIG. 38). The free base of Compound 6 was partially precipitated upon water addition to the ethanol solution and was further recovered by evaporation of the ethanol: water solution. These observations indicate the esylate salt is unstable in water and aqueous ethanol due to dissociation.
A new crystalline XRPD pattern designated as Form A of the free base of Compound 6 was observed from precipitation in ethanol with water (antisolvent) when amorphous ethanesulfonate salt of Compound 6 was used. (FIG. 38, top pattern). Summary of the data obtained for Form A of the free base is shown below in Table 16. […] The Compound 6 free base was recovered by further evaporation of the aqueous ethanol solution. […] These observations indicate the esylate salt is unstable due to dissociation in water and aqueous ethanol solutions.

[3] = Solubility in ethanol observed during salt formation; assay type: physicochemical
Description: To a 2-L Morton flask equipped with a heating mantle, thermocouple, condenser and mechanical stirrer was charged (4-fluorophenyl)(4-((5-methyl-1H-pyrazol-3-yl)amino)quinazolin-2-yl)methanol free base (40.20 g, 115 mmol, 1.0 equiv.). Ethanol (1.6 L) was added and the suspension was stirred and heated to reflux (78° C., internal temperature) until dissolution of the suspension was observed. Ethanesulfonic acid (9.4 mL, 115 mmol, 1.0 equiv.) was charged to the resulting yellow solution. Reflux was maintained for 1 hour, then heating was discontinued and the reaction was allowed to cool to room temperature and stirred overnight. Stirring was stopped and the solids were allowed to settle. The reaction was filtered and the initial isolated product (R)-(4-fluorophenyl)(4-((5-methyl-1H-pyrazol-3-yl)amino)quinazolin-2-yl)methanol dried in a vacuum oven (45° C., ˜20 torr) for 3 days to produce 29.69 g, 65 mmol, 56% yield. The supernatant was concentrated and a second crop of the product was obtained and dried as the first to produce 10.52 g, 23 mmol, 20% yield.
The combined yield for the two crops was 76%. […] Higher yields of salt can be obtained by reducing the amount of ethanol. […]

[4] = standing 1 h after cooling to room temperature
[5] = standing 4 d after cooling to room temperature

CCS(=O)(=O)O [Ethanesulfonic acid]
Solubility in EtOH ([1]; Heating): sol
Solubility in H2O ([1]; Heating): sol
Solubility in IPA ([1]; Heating): sol
Solubility in MeOH ([1]; Heating): sol
Solubility/crystallization in EtOH [1, 4]: cryst
Solubility/crystallization in H2O [1, 4]: gels
Solubility/crystallization in IPA [1, 4]: cryst
Solubility/crystallization in MeOH [1, 4]: sol
Solubility/crystallization in EtOH [1, 5]: cryst
Solubility/crystallization in IPA [1, 5]: cryst
Solubility/crystallization in MeOH [1, 5]: sol
Stability of the salt (dissociation to free base) [2]: unstable
Solubility in ethanol compared to the free base [3]: higher solubility in ethanol
